Each structure is given as a SMILES string. ≈ marks a conversion by molar mass, not a printed value.

For assay [1], the system named is Candida albicans. The assay can be described thus: Antifungal activity against Candida albicans SC5314 assessed as inhibition of yeast to hyphae conversion after 4 hrs by microscopic analysis. The class given is functional, organism-based. To be noted: SC5314, 4 h.
In assay [2] the test system is Candida albicans. The assay can be described thus: Antifungal activity against Candida albicans SC5314 by broth microdilution method. It is filed as functional.

Consider `CC(C)c1ccc2c(c1)C(=O)CC1C(C)(C)[C@@H](O)CC[C@]21C` (stereo partly drawn), for which the IC50 in the assay with Candida albicans [1] amounted to 97.3 µM. This molecule gave an MIC50 against Candida albicans [2] of 427 µM (≈ 128 µg/mL).

On to `CO[C@@]1(C(C)C)C=C2C(=O)C[C@@H]3C(C)(C)[C@H](O)CC[C@@]3(C)[C@@H]2C[C@H]1O`, for which, in the assay on Candida albicans [1], the IC50 is 334 µM. Besides, the MIC50 with Candida albicans [2] is 731 µM (≈ 256 µg/mL). With `C=C[C@]1(C)C=C2[C@@H](CC1)[C@]1(C)CC[C@@H](O)C(C)(C)[C@H]1C[C@@H]2O`, in the assay on Candida albicans [1], the IC50 was determined as 399 µM. Same read-out and setting: next, `CC(C)c1ccc2c(c1)[C@H](O)CC1C(C)(C)[C@@H](O)CC[C@]21C` (stereo partly drawn): 739 µM. `OC(Cn1cncn1)(Cn1cncn1)c1ccc(F)cc1F` [FLUCONAZOLE] displayed an MIC50 in the assay with Candida albicans [2] of 1.6 µM (≈ 0.49 µg/mL). For the molecule `C=CCc1ccc(O)c(-c2cc(CC=C)ccc2O)c1` [MAGNOLOL], the IC50 in the assay on Candida albicans [1] was found to be 7.5 µM.
